Test: gradient 5% acetonitrile 3 min, to 50% in 2 min, to 85% in 15 min, held 3 min, 100 µL/min
Conditions: column: Zorbax Extend-C18 2.1 x 50 mm; eluents: water / acetonitrile, 0.1% formic acid
Procedure, shortened: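 A Zorbax Extend-C18 column (2.1 × 50 mm, 1.8 μm) run at 100 μL/min with water and acetonitrile, both containing 0.1% formic acid, separated mixtures of ~100 pure standards. The HPLC was coupled to a quadrupole time-of-flight mass spectrometer operated in positive and negative ionization mode, with dead and dwell volumes of 40 μL and 900 μL. Each retention time was taken from a computationally picked adduct peak that was then manually inspected.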
`O=C(Nc1ccc(F)cc1)OC1CCCC(NC(=O)c2ccc(Br)o2)C1` (centres undefined) showed an RP-LC retention time of 853 s. `CC(NC(=O)C1CCN(c2cnc(N3CCCC3)nc2)CC1)c1ccc(F)cc1` (centres undefined) showed an RP-LC retention time of 699 s. With `CCOC(=O)c1cn(CC(=O)NC2CCCC2)c2nc(C)ccc2c1=O` the RP-LC retention time was 686 s. Compound `Cc1ccc(Cn2cc(-c3ccncc3)cc2C(=O)N(C)Cc2ccccc2)cc1` has an RP-LC retention time of 751 s. For `CCn1c(=O)c(N2CCC(NC(=O)Nc3ccc(Br)cc3)CC2)nc2ccccc21`, the RP-LC retention time was 1020 s. For `COc1ccc(Cl)cc1C(=O)Nc1ccc2c(c1)CN(C(=O)c1cccs1)CC2`, the RP-LC retention time was 958 s. `Cc1cc(Cl)ccc1NC(=O)C1CC(=O)N(c2ccc3c(c2)CCN3C(=O)C2CC2)C1` (centres undefined) showed an RP-LC retention time of 843 s. `CCCCN(CCCNC(=O)C1CCN(S(=O)(=O)CC)CC1)c1ccccc1` gave an RP-LC retention time of 645 s. `COc1ccc(N2CCN(C(=O)c3cn4c(n3)COCC4)CC2)cc1` gave an RP-LC retention time of 598 s. `COc1ccc(-c2csc3ncnc(NCCN4CCOCC4)c23)cc1` gave an RP-LC retention time of 569 s. `CCN1C(=O)c2c(C(=O)N3CCOCC3)ncn2CC1(C)C(=O)NCc1ccc(F)cc1` (centres undefined) showed an RP-LC retention time of 678 s. With `COc1cc(OC2CCN(C)CC2)ccc1Nc1ncc2c(n1)n(C1CCCC1)c(=O)n2C` the RP-LC retention time was 654 s. `O=c1c2cc3c(cc2nc(SCc2nc(-c4cccc(F)c4)no2)n1-c1ccc(F)cc1)OCO3` gave an RP-LC retention time of 1170 s. Compound `Cc1ccc(N2CCC(NC(=O)Nc3cc(Cl)ccc3C)C2=O)cc1` (centres undefined) has an RP-LC retention time of 956 s. `CCOc1ccc(-c2nc3ncccn3c2NCc2ccc(C)cc2)cc1` showed an RP-LC retention time of 800 s. For `CCCn1ccc2oc(C)c(C(=O)NCc3ccc(C(C)C)cc3)c2c1=O`, the RP-LC retention time was 786 s. `COCc1cc(=O)n2c(n1)N(Cc1cccc(C#N)c1)CC2` gave an RP-LC retention time of 669 s. Work on `CCOC(=O)c1nc(Nc2cc(F)ccc2F)c2ccccc2n1` yielded an RP-LC retention time of 912 s. For `Cc1ccc(C)c(N2CCN(C(=O)c3cn4ccc(C)cc4n3)CC2)c1`, the RP-LC retention time was 759 s. In the case of `CCC(C)(C)NC(=O)CN1C(=O)CCCc2cc(S(=O)(=O)N3CCC(C)CC3)ccc21`, the RP-LC retention time is reported as 963 s. `CCOCCCNC(=O)N1CCN(Cc2nc3cccnc3n2-c2cc(C)cc(C)c2)CC1` showed an RP-LC retention time of 653 s. With `CCCCOc1ccc(NC(=O)c2oc3ccc(C)cc3c2C)c2cccnc12` the RP-LC retention time was 923 s. With `CCc1nc(OCC(=O)NCCCOC)c2c(-c3ccc(F)cc3)noc2n1` the RP-LC retention time was 890 s. For `CCc1ccc(-c2csc(NC(=O)C3CCCO3)n2)cc1` (centres undefined), the RP-LC retention time was 1020 s. `CC(C)c1cc(C2CCCN2C(=O)NC(C)(C)C)on1` (centres undefined) showed an RP-LC retention time of 835 s. For `O=C(Cc1cccc(F)c1)Nc1nnc(C2CC(=O)N(c3ccc(F)cc3)C2)o1` (centres undefined), the RP-LC retention time was 726 s. Work on `O=C(COc1ccc(F)cc1)N1CCCC1c1nc(-c2ccc(F)cc2F)no1` (centres undefined) yielded an RP-LC retention time of 950 s. Compound `CC1CCc2c(sc3ncn4c(=O)n(CC(=O)N5CCc6ccccc6C5)nc4c23)C1` (centres undefined) has an RP-LC retention time of 1070 s. Work on `CCOc1ccccc1NC(=O)N1CCCC1c1nc(-c2ccccc2OC)no1` (centres undefined) yielded an RP-LC retention time of 809 s. `COc1ccc(C(=O)N2CCC3(C2)C(=O)N(C)c2ccccc23)c(OC)c1` (centres undefined) gave an RP-LC retention time of 759 s. With `COc1cccc(-c2nc(-c3ccnc(N4CCOCC4)c3)no2)c1` the RP-LC retention time was 944 s. With `CCn1cnc2ccc(-c3noc(COc4ccccc4OC)n3)cc21` the RP-LC retention time was 712 s. Work on `CCCn1cc(C(=O)NCCCOCC)c(S(=O)(=O)N2CCN(c3cccc(Cl)c3)CC2)n1` yielded an RP-LC retention time of 1110 s. For `COCCc1noc(C2Cc3ccccc3N2C(=O)Nc2ccc(OC)c(OC)c2)n1` (centres undefined), the RP-LC retention time was 851 s. Compound `CC(C)(C)c1ccc(O)c(NC(=O)c2cn(-c3ccc(S(=O)(=O)N4CCCCC4)cc3)cn2)c1` has an RP-LC retention time of 1100 s. `CCc1ccccc1NC(=O)N1CCC(c2cc(N)on2)CC1` gave an RP-LC retention time of 751 s. With `CN(CC(=O)O)c1nc2c(F)cccc2s1` the RP-LC retention time was 689 s. `Cc1cccc(NC(=O)CN2C(=O)CCS(=O)(=O)c3ccccc32)c1` gave an RP-LC retention time of 762 s. In the case of `CCN(CC)Cc1nc(-c2ccc(N3CCSCC3)nc2)no1`, the RP-LC retention time is reported as 632 s. Work on `O=C(Cc1c[nH]c2ncccc12)NCc1ccc(Br)cc1` yielded an RP-LC retention time of 666 s. In the case of `O=C(NCCCN1CCN(C2CCCCC2)CC1)c1ccc2c(c1)NC(=O)C1CCCCN21` (centres undefined), the RP-LC retention time is reported as 576 s. `Cc1noc(C)c1CN1CCN(C(=O)c2nc3ccccc3s2)CC1` showed an RP-LC retention time of 574 s. With `CCNc1nc(NC(C)(C)C)nc(-n2cnc(SC)n2)n1` the RP-LC retention time was 873 s. `CCN1CCn2cc(S(=O)(=O)Nc3cccc(C)c3)cc2C1=O` showed an RP-LC retention time of 736 s. `Cc1nc(NC2=NCN(Cc3ccc4c(c3)OCO4)CN2)nc2ccccc12` gave an RP-LC retention time of 707 s. `Cc1cn(C)c(CC(=O)NCCCN2CCCCCC2)c1C(=O)O` gave an RP-LC retention time of 593 s. `CCOC(=O)c1nc(N(C)c2ccccc2F)c2ccccc2n1` gave an RP-LC retention time of 931 s. `CC(=O)Nc1ccc(Cc2nc(-c3cccc(-c4ccnn4C)c3)no2)cc1` gave an RP-LC retention time of 874 s. With `Cc1cc(=O)n(CC(=O)Nc2cc(F)ccc2F)c(-c2ccc(F)cc2)n1` the RP-LC retention time was 1090 s. In the case of `NS(=O)(=O)c1ccc(NC(=O)c2csc3c2CCCC3)cc1`, the RP-LC retention time is reported as 769 s. `COc1cc(OC)cc(C(=O)NC2CCN(Cc3c(C)noc3C)C2)c1` (centres undefined) gave an RP-LC retention time of 613 s. Compound `CCCNC(=O)Cn1c(C)nc2ccccc21` has an RP-LC retention time of 571 s. `O=C(NCc1ccc2c(c1)OCO2)c1ncoc1-c1ccccc1C(=O)N1CCCC1` showed an RP-LC retention time of 757 s. In the case of `CN(CCc1noc(COc2ccc(F)cc2)n1)C(=O)Nc1ccccc1Cl`, the RP-LC retention time is reported as 962 s. `Cc1nc(-c2cn(C(C)C)c3ncccc23)sc1C(=O)N1CCCCC1` gave an RP-LC retention time of 958 s. In the case of `Cn1ncc2c(Nc3cccc(Cl)c3)nc(N3CCCC3)nc21`, the RP-LC retention time is reported as 978 s. For `COc1cccc(NC(=O)C2CCN(c3c(C)n(C)c(=O)n(C)c3=O)CC2)c1`, the RP-LC retention time was 769 s. `CCc1nc2cc(-c3noc(Cc4ccc(OC)cc4Cl)n3)ccc2o1` showed an RP-LC retention time of 1190 s. `COc1cccc(CNC2=NCCNC23CCN(S(=O)(=O)c2ccc(C(C)(C)C)cc2)CC3)c1` gave an RP-LC retention time of 837 s. In the case of `COc1ccc(S(=O)(=O)NC(CC(=O)O)c2ccccc2)cc1` (centres undefined), the RP-LC retention time is reported as 674 s. In the case of `Cc1cccc2nc(-c3ccc(Cl)cc3)c(Nc3ccc4c(c3)OCCO4)n12`, the RP-LC retention time is reported as 701 s. `O=c1ccc(N2CCCN(S(=O)(=O)c3cccc(Cl)c3)CC2)nn1-c1ccccc1` showed an RP-LC retention time of 868 s. In the case of `O=C(O)CCC1CCCN(S(=O)(=O)c2ccccc2)C1` (centres undefined), the RP-LC retention time is reported as 770 s. For `CC1CCN(c2nccnc2Oc2ccc(C(=O)N3CCN(c4ccccn4)CC3)cc2)CC1`, the RP-LC retention time was 711 s. `CCOc1ccc(CNC(=O)C2CCCN2S(=O)(=O)c2cc3c(cc2Cl)NC(=O)CO3)cc1` (centres undefined) showed an RP-LC retention time of 760 s. Compound `Cc1ccc(C)c(NC(=O)N2CCCC(Cn3c(C4CC4)nc4cccnc43)C2)c1` (centres undefined) has an RP-LC retention time of 680 s. `Oc1cccc(-c2nc3cnc(Br)cn3c2Nc2cccc(C(F)(F)F)c2)c1` gave an RP-LC retention time of 902 s. With `O=C(NC1CCN(c2ccccc2)C1=O)c1ccccc1Br` (centres undefined) the RP-LC retention time was 766 s. `Cc1c(Br)cncc1C(=O)O` showed an RP-LC retention time of 620 s. With `CN(C)C(=O)c1cn(C2CN(C(=O)c3ccc(C#N)cc3)C2)nn1` the RP-LC retention time was 624 s. `Cn1c(C(=O)N2CCN(c3ccccn3)CC2)cc2sccc21` showed an RP-LC retention time of 598 s. For `O=C(Cn1c(=O)n(-c2ccccc2)c2ncccc21)NCCCN1CCCC1`, the RP-LC retention time was 586 s. `CN(Cc1ccco1)C(=O)CC1CCN(C(=O)c2cc3cc(Cl)ccc3[nH]2)CC1` showed an RP-LC retention time of 897 s. With `O=C(N[C@H]1C[C@@H]2C[C@H]1CN2C(=O)NCc1ccco1)c1ccccc1` the RP-LC retention time was 652 s. Compound `C=CCn1c(=O)c2ccccc2n(Cc2nc(-c3ccc4c(c3)OCO4)no2)c1=O` has an RP-LC retention time of 998 s. `O=C(C1CCN(c2cnn(Cc3ccccc3)c(=O)c2)C1)N1CCCC1` (centres undefined) gave an RP-LC retention time of 683 s. For `CS(=O)(=O)Oc1ccc(Br)c2cccnc12`, the RP-LC retention time was 889 s. For `COc1ccc(-c2noc(C3CCCN3C(=O)c3cc(OC)c(OC)c(OC)c3)n2)cc1OC` (centres undefined), the RP-LC retention time was 828 s. Compound `COc1ccc(NC(=O)c2ccc3nc(-c4ccccc4)cn3c2)c(OC)c1` has an RP-LC retention time of 722 s. `COc1ccc(-c2nsc(SCC(=O)Nc3ccc4c(c3)OCCO4)n2)cc1` gave an RP-LC retention time of 906 s. With `O=C(Cn1cnc2c(sc3nc(-c4ccccc4)ccc32)c1=O)Nc1cc(F)cc(F)c1` the RP-LC retention time was 1070 s. With `CCS(=O)(=O)c1ccc2c(c1)N(Cc1nc(-c3ccccc3)no1)C(=O)CO2` the RP-LC retention time was 865 s. Work on `Cc1ccn2cc(-c3ccc(NS(=O)(=O)c4ccccc4F)cc3)nc2n1` yielded an RP-LC retention time of 636 s. For `CC(=O)Nc1ccc(-c2noc(C3CCCN(C(=O)CCc4c[nH]c5ccccc45)C3)n2)cc1` (centres undefined), the RP-LC retention time was 798 s. In the case of `CCN(C1CCOCC1)C1CN(S(=O)(=O)c2cccc(F)c2)C1`, the RP-LC retention time is reported as 597 s. Compound `CC1=C(c2ccc(Cl)cc2)S(=O)(=O)N=C1N1CCCN(C(=O)c2ccccn2)CC1` has an RP-LC retention time of 765 s. With `Cc1nn2c(CNS(=O)(=O)c3cccc(Cl)c3C)c(-c3ccccc3)nc2s1` the RP-LC retention time was 942 s. With `COc1cc([C@@H]2c3cc4c(cc3[C@H](O)[C@@H](CO)[C@@H]2C(=O)NCC2CC2)OCO4)cc(OC)c1OC` the RP-LC retention time was 666 s. In the case of `Cc1ccc(C)c(-c2coc(-c3ccc(NC(=O)C4CCCCC4)cc3)n2)c1`, the RP-LC retention time is reported as 1370 s.
